The test has as its target Casein kinase I isoform gamma-3 (Homo sapiens) (UniProt Q9Y6M4). Nature of the test: CSNK1G3 binders by thermal stabilization, biophysical, DSF, SYPRO orange, recombinant protein (AID 385). The note with it: at 10 µM, protein 2 µM, buffer 10 mM HEPES, pH 7.5, NaCl 150 mM, hits give high values.

Chain of Casein kinase I isoform gamma-3 (Homo sapiens) (Q9Y6M4 whole entry, looked up, canonical isoform): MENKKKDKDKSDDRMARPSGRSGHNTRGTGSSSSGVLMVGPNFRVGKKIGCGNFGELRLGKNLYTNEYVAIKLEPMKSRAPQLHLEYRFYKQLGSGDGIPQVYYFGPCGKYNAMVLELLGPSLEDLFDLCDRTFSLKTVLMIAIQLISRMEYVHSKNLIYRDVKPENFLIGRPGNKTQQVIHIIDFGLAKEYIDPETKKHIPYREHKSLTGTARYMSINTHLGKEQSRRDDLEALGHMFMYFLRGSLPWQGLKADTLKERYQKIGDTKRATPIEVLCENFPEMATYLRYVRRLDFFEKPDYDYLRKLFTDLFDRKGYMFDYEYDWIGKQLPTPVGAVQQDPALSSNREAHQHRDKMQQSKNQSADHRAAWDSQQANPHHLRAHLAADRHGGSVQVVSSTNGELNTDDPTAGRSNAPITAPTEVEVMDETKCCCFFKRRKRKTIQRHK

Regarding `CSc1nc(-c2ccnc(NC(C)c3ccccc3)c2)c(-c2ccc(F)cc2)[nH]1` (stereo unspecified), the Tm shift is 3.5 C. Regarding `CCn1cnc2c(Nc3cccc(Cl)c3)nc(N[C@@H]3CCCC[C@@H]3N)nc21`, the Tm shift is 5.5 C.

Consider `O=Nc1c(-c2c(O)[nH]c3ccc(S(O)(O)O)cc23)[nH]c2ccccc12`, for which the Tm shift was 3.8 C. For `CC(C)n1cnc2c(Nc3cccc(Cl)c3)nc(NCCO)nc21`, the Tm shift was 7 C.

For the compound `Nc1nc(Nc2ccc(F)cc2)sc1C(=O)c1ccccc1`, the Tm shift is 3.5 C. For the compound `Nc1nc(Nc2ccccc2F)sc1C(=O)c1ccc(Br)cc1`, the Tm shift is 3.4 C. `O=c1[nH]c(O)c2c1c1c3ccccc3nc1n1cncc21`: the Tm shift was 3.5 C.

As to `Nc1nc(Nc2cccc(Cl)c2)sc1C(=O)c1ccc(F)cc1`, the Tm shift is 4.8 C.

In the case of `NC(=O)c1ccc(-c2nc(-c3ccc4c(c3)OCCO4)c(-c3ccccn3)[nH]2)cc1`, the Tm shift is 6.7 C.

Consider `N#C/C(=C1\Nc2ccccc2S1)c1ccnc(NCCc2cccnc2)n1`, for which the Tm shift was 3.5 C. The value for `Nc1nc(Nc2ccccc2)sc1C(=O)c1ccc(F)cc1` was 3.3 C; that for `COc1ccc(Nc2nc(N)c(C(=O)c3ccc(OC)cc3)s2)cc1` was 4.9 C. With `COc1ccc(Nc2nc(N)c(C(=O)c3ccc(Cl)cc3)s2)cc1`, the Tm shift is 3.1 C. Regarding `Nc1nc(Nc2ccc(S(N)(=O)=O)cc2)nn1C(=S)Nc1c(F)cccc1F`, the Tm shift is 5.4 C. On to `NC1=N/C(=C2/CCNC(=O)c3[nH]c(Br)cc32)C(=O)N1`, for which the Tm shift was 3.5 C.

Take `CCN(CC)CCNC(=O)c1c(C)[nH]c(/C=C2\C(=O)Nc3ccc(Cl)cc32)c1C`: the Tm shift was 4 C.

The values are drawn from PubChem BioAssay AID385 (SGCOxCompounds, 2006).
